Test results from article PMC11317440, “Soloxolone para-methylanilide effectively suppresses aggressive phenotype of glioblastoma cells including TGF-β1-induced glial-mesenchymal transition in vitro and inhibits growth of U87 glioblastoma xenografts in mice” (Frontiers in Pharmacology, 2024).
pIC50: −log10 of the molar value.

What was measured:
U87 cells [1] = test: Colony formation assay, U87 cells; format: cell-based, human; conditions: 10 days
Procedure: (§1) U87, U118 and EPNT-5 cells were seeded at a density of 200 cells/well in 96-well plates and treated with increasing concentrations of compound 7 (0–1,000 nM) dissolved in 10% FBS-containing DMEM (n = 5). On day 10, colonies were fixed with 4% formaldehyde and stained with crystal violet dye (0.1% w/v). Images were captured using the iBright 1,500 Imaging System (Invitrogen, USA) and the area of colonies with a minimum diameter of 100 µm was calculated using ImageJ. In the case of overlapping colonies, their total area was calculated. Finally, the area of the formed cell colonies was summed and normalized to the total colony area in the control.

[2] = system: aldehyde dehydrogenase (ALDH) activity in U87 primary tumorspheres; test: ALDH activity in U87 tumorspheres (AldeRed, flow cytometry); format: cell-based, human; conditions: 7 at 50 and 100 nM, regardless of the dose, 4 days
Procedure: To assess ALDH activity, U87 cells were dissociated from spheroids using TrypLE Express after 4 days of induction with compound 7 (0–100 nM) (n = 3). Cells were then stained with the AldeRed ALDH Detection Assay (SCR150; EMD Millipore, Burlington, MA, USA) according to the manufacturer’s protocol. Experimental controls included U87 cells grown in 2D culture and cells treated with the ALDH inhibitor diethylaminobenzaldehyde (DEAB). Gates of ALDH-positive cells were set according to the inhibitory effect of DEAB on control cells.
After staining, 10,000 cells per sample were analyzed on a NovoCyte flow cytometer using NovoExpress software (ACEA Biosciences, Inc., USA).

TGF-β1-treated U87 cells = test: Adhesion of U87 cells to culture plastic (TrypLE treatment assay); format: cell-based, human; conditions: TGF-β1 50 ng/mL, non-toxic concentrations, 48 h
Procedure: (§2) Adhesiveness of glioblastoma cells was assessed by two independent methods. First, cell adhesion to culture plastic was tested using a trypsin treatment assay, as previously described ([Sava et al., 2004]; [Mazuryk et al., 2015]; [van Dijk et al., 2017]). Briefly, U87 and U118 cells (10,000 cells per well of a 96-well plate, n = 4) were cultured with TGF-β1 (50 ng/mL) and non-toxic concentrations of soloxolone amides for 48 h and then treated with a 1:20 dilution of TrypLE Express (Gibco, USA) in PBS for 3 min at 37°C. Non-adherent cells were then removed by a triple PBS wash, and the remaining adherent cells were fixed with 4% formaldehyde and stained with crystal violet dye (0.1% w/v). Images were captured using the iBright 1,500 Imaging System (Invitrogen, USA), and the cell-occupied area was calculated using ImageJ. Alternatively, the number of adherent cells was quantified using the MTT assay.

U118 cells = test: MTT assay 72 h, 7 and TMZ alone and combined, synergy (HSA), U118; format: cell-based, human
Procedure: (§3) The drug synergy score was calculated for the dose-response matrix according to the highest single-agent (HSA) model using the SynergyFinder + web application (https://www.synergyfinder.org/).

[3] = system: TGF-β1-treated U118 cells; test: Adhesion of U118 cells to culture plastic (TrypLE treatment, MTT); format: cell-based, human; conditions: TGF-β1 50 ng/mL, 7 50 nM, 48 h
Procedure: as §2

[4] = system: TGF-β1-treated U118 cells; test: Scratch (wound closure) assay, U118 cells; format: cell-based, human; conditions: U118, 7 50 nM, TGF-β1 50 ng/mL
Procedure: For the scratch assay, U118 cells were seeded in triplicate in 24-well plates at a concentration of 300,000 cells/well and allowed to adhere overnight. The cells were then scratched with a 10 μL plastic pipette tip, washed with PBS, and covered with serum-free DMEM containing TGF-β1 (50 ng/mL) and compound 7 (50 nM). Scratches were photographed at 0, 24, and 48 h using an EVOS XL Core microscope. Wound closure was determined by estimating the scratch area at each time point using ImageJ software and normalizing to the scratch area at 0 h.

U118 glioblastoma cells = test: MTT cell viability assay, U118 cells, 48 h; format: cell-based; conditions: Homo sapiens
Procedure: (§4) Cells were seeded in quadruplicate in 96-well plates at 10,000 cells/well and allowed to adhere overnight. The medium was then replaced with serum-free DMEM containing increasing concentrations of soloxolone amides for 48 h. After incubation, 3-(4,5-dimethylthiazol-2-yl)-2,5-diphenyltetrazolium bromide (MTT dye) was added at a final concentration of 0.5 mg/mL and left for 2 h. The resulting formazan crystals were dissolved in DMSO and the optical density was measured at 570 nm using a Multiscan RC plate reader (Thermo LabSystems, Helsinki, Finland).

U87 cells [5] = test: MTT assay 72 h, 7 and TMZ alone and combined, synergy (HSA), U87; format: cell-based, human
Procedure: as §3

EPNT-5 cells = test: Colony formation assay, EPNT-5 cells; format: cell-based, mouse; conditions: 10 days
Procedure: as §1

U87 primary tumorspheres = test: Primary tumorsphere growth, U87; format: cell-based, human
Procedure: For evaluation of spheroid growth, the bottom of the 96-well plate was covered with 1% agarose for non-adherent conditions. U87 cells (5,000 cells/well) were then seeded and allowed to form spheroids for 24 h, after which increasing concentrations of compound 7 (0–1,000 nM) were added (n = 8). Every other day of the 10-day experiment, fresh medium supplemented with compound 7 was added to half of the medium, and the spheroids were photographed using a camera-equipped ZEISS Primo Vert microscope (Carl Zeiss Microscopy GmbH, Jena, Germany). To assess the formation of secondary tumorspheres, cells were dissociated from primary tumorspheres after 4 days of compound 7 stimulation using TrypLE Express and were then seeded into agarose-coated 96-well plates (n = 8). On day 3, the resulting secondary spheroids were examined microscopically. Primary and secondary spheroid areas were quantified using ImageJ.

[6] = system: non-malignant human hFF3 fibroblasts; test: MTT cell viability assay, hFF3 fibroblasts, 48 h; format: cell-based; conditions: 7 at 400 nM
Procedure: as §4

[7] = system: TGF-β1-induced U118 cells; test: Cell morphology (aspect ratio) of TGF-β1-induced U118 cells; format: cell-based, human; conditions: TGF-β1 50 ng/mL, 7 50 nM, 48 h
Procedure: After seeding at a concentration of 5,000 cells/well in triplicate in 96-well plates and incubating overnight, U87 and U118 cells were exposed to TGF-β1 (50 ng/mL) and non-toxic concentrations of soloxolone amides for 48 h. An EVOS XL Core microscope with an integrated CMOS camera (Thermo Fisher Scientific, USA) was then used to examine cell morphology at ×20 magnification. Aspect ratio (AR) and area were quantified for at least 150 cells in each experimental group using ImageJ software (NIH, USA).

[8] = U87 primary tumorspheres, 7 1,000 nM

Structure (SMILES): Cc1ccc(NC(=O)[C@@]2(C)CC[C@]3(C)CC[C@]4(C)[C@H](C(=O)C=C5[C@@]6(C)C=C(C#N)C(=O)C(C)(C)C6CC[C@]54C)[C@@H]3C2)cc1 (stereo partly drawn) [compound 7, N-p-tolyl-2-cyano-3,12-dioxo-18βH-olean-9(11),1(2)-dien-30-amide]
- inhibition at 0.05 µM (U87 cells [1]; Homo sapiens, U-87 MG, 240 h, U87, 7 50 nM): 48.7%
- inhibition at 0.1 µM (U87 cells [1]; Homo sapiens, U-87 MG, 240 h, U87, 7 100 nM): 74.2%
- colony area (U87 cells [1]; U87, 7 50 nM): 51.3%
- colony area (U87 cells [1]; U87, 7 1,000 nM): 3.9%
- reduction of the number of ALDH+ cells compared to the control [2]: 2.3 fold
- adhesion of TGF-β1-treated U87 cells to culture plastic (MTT readout) (TGF-β1-treated U87 cells): one of the most pronounced pro-adhesive effects
- adhesion of TGF-β1-treated U87 cells to culture plastic (crystal violet) (TGF-β1-treated U87 cells): restoring it to control levels
- pIC50 (U118 cells; Homo sapiens, MTT): 6.77
- reduction of the cytotoxic effect by NAC (U118 cells; U118, NAC 2 mM, TMZ 125 μM, 7 100 nM): 80.3%
- TGF-β1-induced decrease in U118 cell adhesion to culture plastic [3]: effectively reversed
- effect on TGF-β1-enhanced wound closure at 24 h ([4]; 24 h): completely reversed
- reduction of the effect of TGF-β1 on wound closure at 48 h ([4]; 48 h): 34%
- pIC50 (U118 glioblastoma cells): 6.51
- pIC50 (U87 cells [5]; Homo sapiens, U-87 MG, MTT): 6.71
- reduction of the cytotoxic effect by NAC (U87 cells [5]; U87, NAC 2 mM, TMZ 125 μM, 7 100 nM): 56.2%
- colony growth (EPNT-5 cells; EPNT-5, 7 450 nM): complete abrogation of colony growth
- colony growth (EPNT-5 cells; EPNT-5, 7 1,000 nM): complete abrogation of colony growth
- inhibition at 0.05 µM (EPNT-5 cells; Mus musculus, 240 h, EPNT-5, 7 50 nM): 56.1%
- inhibition at 0.1 µM (EPNT-5 cells; Mus musculus, 240 h, EPNT-5, 7 100 nM): 69%
- increase of spheroid growth compared to control (U87 primary tumorspheres; U87 primary tumorspheres, 7 50 nM, p-value <0.05): 21%
- increase of spheroid growth compared to control (U87 primary tumorspheres; U87 primary tumorspheres, 7 100 nM, not statistically significant): 10.4%
- spheroid growth (U87 primary tumorspheres; U87 primary tumorspheres, 7 450 nM): stopping it after 4 days
- reduction of tumorsphere size compared to control by day 10 (U87 primary tumorspheres; [8]): 28.6%
- spheroid growth (U87 primary tumorspheres; [8]): completely blocking it
- concentration causing a large-scale reduction of spheroids (U87 primary tumorspheres; U87 tumorspheres): 1 µM
- death of hFF3 cells [6]: about 21%
- shape (aspect ratio) of TGF-β1-induced U118 cells [7]: restored the shape of TGF-β1-induced cells to that of the control cells
